According to patent US8901177B2, “Method of treating bladder disorders” (Targacept, Inc., priority 2012, dated 2014):

Tests used:
[1] = assay type: in vivo, human
Method: More recently, dexmecamylamine was evaluated as adjunctive therapy in the treatment of major depressive disorder (MDD) in a large international Phase 3 depression program. […] More than 2400 subjects have received dexmecamylamine in double-blind or open-label studies.
No safety studies using dexmecamylamine have been performed in OAB. Phase 2 and Phase 3 clinical studies using dexmecamylamine in Major Depressive Disorder (MDD) have been conducted and completed. […] Briefly, in the fixed dose Phase 3 studies in MDD, at doses of 2 mg BID (the maximum doses to be studied in the OAB study), the most frequent treatment emergent adverse events that were reported more than 2% more commonly in the dexmecamylamine group compared to placebo group were: constipation (15.2% dexmecamylamine vs. 3.8% placebo); and dry mouth (7.0% dexmecamylamine vs. 1.3% placebo).

[2] = Urinary excretion and bladder/urine concentration after oral dosing, clinical program for depression; assay type: in vivo, human; conditions: for excretion unchanged in the urine: human, in vivo
Method: One aspect of the present invention is the use of dexmecamylamine as an oral agent for intravesical drug delivery. Oral doses (up to 4 mg BID) of dexmecamylamine evaluated during clinical studies for depression produced concentrations in the bladder in excess of 10 μM. […] Nicotinic receptors, including α3, α7, and β4, are expressed in the bladder urothelium itself. Agents that block nicotinic receptors in the bladder, such as hexamethonium, decrease bladder contractions and may block sensation of urgency. Inhibition of the α3 receptor diminishes bladder contraction frequency and afferent signaling to the brain (via P2X), thereby blocking or reducing the sensation of urgency. […] (Xu et al., Megacystis, mydriasis, and ion channel defect in mice lacking the α3 neuronal nicotinic acetylcholine receptor, Proc. Natl. Acad. Sci., Vol. 96, pp. 5746-5751, May 1999.)
During the dexmecamylamine clinical program for depression, including the initial phase 1 study (conducted by Targacept), ≧90% of orally administered dexmecamylamine was excreted unchanged in the […].

[3] = Mouse carcinogenicity studies; assay type: in vivo; conditions: much higher doses and concentrations than in the clinical program
From the text: Further, the Summary Basis of Approval for Detrol® indicates similar (lower rates) of bladder dilatation, as is noted in dexmecamylamine's carcinogenicity studies. Urinary retention, and concomitant urinary tract infection, is not anticipated to be a therapy-limiting side effect for relatively low doses and concentrations of dexmecamylamine (FIG. 24).

human α3β4 channels = target: T1, human α3β4 channels (Homo sapiens, UniProt P30926+P32297); assay: Use-dependent inhibition of human α3β4 channels expressed in CHO cells (Dynaflow electrophysiology); assay type: cell-based
T1 construct: host or cells: CHO cells
Method: There was an assumption that the dependence on the number of co-applications would be the most relevant to clinical concentrations, since upon the time of exposure in vivo, the number of open channels could reach substantial numbers; perhaps due to channel spontaneous opening, flickering, and endogenous transmitter release as a result of brain activity. All experiments were performed using a conventional Dynaflow (Cellectricon Inc.) electrophysiological system. Dynaflow settings: To achieve continuous exposure to the drug we used following Dynaflow chip loading. An example of standard chip loading for use-dependent experiments with example for 30 μM ACh and 0.1 μM of TC-05231 (racemic mecamylamine). For the following experiments, ACh always consisted of 30 μM and concentrations of compounds were, 0.03, 0.1, 0.3 and 1.0 (μM). FIG. 13 illustrates the settings.
Applications were performed by positioning the cell in front of channel #1 for 1 second, followed by channel #3, then back to channel #1 by rapidly moving the Dynaflow chip, which consisted of both the laminar flow from the channels and the entire bath solution. The additional channels between control and ACh-containing channel were used: (1) to provide the needed space for an additional washout to avoid contaminating the control channels with the agonist solution; and (2) to allow for the necessary amount of time for the Dynaflow stage to reach its optimum scanning speed.
3.1. Establishment of recording baseline: First, pipette with cells moved to channel #3. Then cells were exposed to ACh by moving cells to channel #1 for 1 second and back to channel #3. This movement of cells was repeated 10 times at 30 second intervals;
3.2. Collection data on use-dependent inhibition: After establishment of stable baseline, cells were moved to channel #6 and exposed to a test compound for 30 sec. Then cells were moved to channel #8 for 1 second and back to channel #6 for 30 seconds (total 10 times with intervals 30 seconds); and 3.3. To test reversibility of block (washout): repeat step 1. Note: with this chip setting, during repeated application of acetylcholine plus test compound, there was no interruption in application of compounds. For all calculations, peak current amplitude was normalized to the peak current amplitude evoked by the 10th application of acetylcholine. Experimental Results

T1 sequence (P32297 32-505): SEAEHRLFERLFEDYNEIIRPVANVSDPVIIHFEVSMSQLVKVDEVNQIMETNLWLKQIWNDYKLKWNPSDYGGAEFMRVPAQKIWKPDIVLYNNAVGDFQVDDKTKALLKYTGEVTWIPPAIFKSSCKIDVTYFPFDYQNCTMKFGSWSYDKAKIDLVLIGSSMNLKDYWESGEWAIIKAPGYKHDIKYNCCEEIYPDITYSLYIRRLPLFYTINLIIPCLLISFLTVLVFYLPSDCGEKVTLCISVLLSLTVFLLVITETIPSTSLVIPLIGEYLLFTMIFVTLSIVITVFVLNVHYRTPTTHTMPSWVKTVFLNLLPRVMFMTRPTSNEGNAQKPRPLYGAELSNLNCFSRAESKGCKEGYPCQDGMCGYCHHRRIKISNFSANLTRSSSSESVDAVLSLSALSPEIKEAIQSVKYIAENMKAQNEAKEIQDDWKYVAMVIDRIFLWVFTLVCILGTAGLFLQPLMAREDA
T1 sequence (P30926 22-498): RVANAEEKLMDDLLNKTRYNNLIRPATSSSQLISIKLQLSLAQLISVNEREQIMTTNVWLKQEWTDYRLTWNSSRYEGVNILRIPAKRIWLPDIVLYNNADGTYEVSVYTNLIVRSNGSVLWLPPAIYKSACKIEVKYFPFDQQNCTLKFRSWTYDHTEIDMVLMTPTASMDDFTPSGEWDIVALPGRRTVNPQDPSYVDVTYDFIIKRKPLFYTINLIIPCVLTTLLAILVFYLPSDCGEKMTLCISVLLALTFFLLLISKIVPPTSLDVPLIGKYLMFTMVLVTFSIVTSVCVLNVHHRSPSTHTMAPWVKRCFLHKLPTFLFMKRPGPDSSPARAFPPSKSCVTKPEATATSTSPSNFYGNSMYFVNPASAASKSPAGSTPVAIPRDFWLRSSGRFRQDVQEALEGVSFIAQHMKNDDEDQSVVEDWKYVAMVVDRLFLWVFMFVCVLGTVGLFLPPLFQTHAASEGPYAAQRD

CNC1(C)[C@H]2CCC(C2)C1(C)C (stereo partly drawn) [TC-5214, (S)—N,2,3,3-tetramethylnorbornan-2-amine]
efficacy in the treatment of depression ([1]; adjunctive therapy, Phase 3 program): failed to demonstrate efficacy
vital signs, blood or urine laboratory measurements, ECG conduction intervals, suicidality ([1]; human, in vivo): no noteworthy differences
expected mean concentrations (urine) in humans ([2]; 0.5 mg BID dosing): approximately 3 μM
mean urine concentrations ([2]; 1 mg BID): approximately 6 μM
excretion unchanged in the urine [2]: eliminated unchanged in the urine
excretion unchanged in the urine ([2]; listed as dexmecamylamine): excreted almost entirely unchanged in the urine
concentrations in the bladder ([2]; oral doses up to 4 mg BID): > 10 µM
orally administered dose excreted unchanged in the bladder ([2]; oral, clinical program for depression incl. initial phase 1 study): ≥ 90%
urinary retention [3]: urinary retention was noted
peak current normalized to 10th ACh application (positive modulation, FIG. 16) (human α3β4 channels; 30 nM compound + 30 μM ACh, first co-application, control = 100, SEM and n in next columns): 113.3
positive modulation of α3β4 function (human α3β4 channels; 30 nM, t-test p<0.05): weak positive modulation
inhibition of human α3β4 receptor (asymptotes to the curve, FIG. 14) (human α3β4 channels; 100 nM compound with acetylcholine): minor to no detectable inhibition
Inhibition by (%) (human α3β4 channels; 100 nM compound, after 10 co-applications of 30 uM Ach and compound): 10% ± 6%
activity at 0.03 µM (human α3β4 channels; CHO, 30 nM compound + 30 μM ACh, successive grid rows = co-applications 1 to 10, control = 100, read-out: peak current amplitude normalized to 10th ACh application, use-dependent inhibition box): 113%
activity at 0.1 µM (human α3β4 channels; CHO, 100 nM compound + 30 μM ACh, successive grid rows = co-applications 1 to 10 at 30 s intervals, control = 100, read-out: peak current amplitude normalized to 10th ACh application, use-dependent inhibition box): 100%
inhibition at 0.1 µM (human α3β4 channels; CHO, 100 nM compound, after 10 co-applications of 30 uM Ach and compound, read-out: Inhibition by (%)): 10.1%
recovery (%) (human α3β4 channels; after 100 nM compound, following 10 application of Ach (30 uM) alone): 96% ± 6%
recovery / persistence of inhibition after wash out (human α3β4 channels; after 30 and 100 nM compound, agonist alone): full recovery
